In patent US8242159B2, “1,3-dihydro-5-isobenzofurancarbonitrile derivatives and pharmaceutical composition thereof for the treatment of premature ejaculation” (Dong-A Pharmaceutical. Co., Ltd, priority 2007, dated 2012):

Tested on: Male Wistar rats
Assay: p-PCA-induced ejaculation in anesthetized rats (ejaculation-delaying effect)
Type: in vivo, rat
Conditions: for Ratio: Number of responding animals/total animal number: 50 mg/kg oral in 1% HPMC, p-PCA 5 mg/kg i.p. 80 min later, observed 30 min; for Latency: Time to display the ejaculatory response: 50 mg/kg oral, p-PCA 5 mg/kg i.p., mean ± standard deviation of responding rats
Protocol: The compounds prepared in the above examples were evaluated to determine whether they have an effect of delaying ejaculation. The evaluation was carried out using an animal model according to a method described in Yonezawa et al., Life Sci. 2000, 67(25) p 3031-9. Male Wistar rats weighing 240-260 g were used. Each compound was suspended in 1% HPMC, and then administered orally to each animal. After 60 min, the animals were anesthetized and fixed. 20 min later, para-chloroamphetamine (p-PCA) was intraperitoneally administered in a dose of 5 mg/kg in order to induce ejaculation. […] An ejaculatory response was considered to be elicited when rhythmic contraction of bulbocavernosus muscles and semen discharge occurs. Six or more animals were used for each compound. A Fisher's […] test was performed for the comparison of the proportion of responding rats (ejaculated rats) to determine significance of difference between a treatment group and a vehicle control. The time to reach ejaculation was expressed as mean±standard deviation.
Each test compound was administered at a dose of 50 mg/kg. Ejaculation was elicited in all seven animals of a control group.

Row | Structure (SMILES) | Ratio: Number of responding animals/total animal number | Latency: Time to display the ejaculatory response [s]
1 | Cl.N#Cc1ccc2c(c1)COC2(CCCn1cccn1)c1ccc(Cl)cc1 (centres unmarked) [Ex. 66, 1-(4-chlorophenyl)-1-{3-(pyrazole-1-yl)propyl}-1,3-dihydro-5-isobenzofurancarbonitrile hydrochloride] | 4/7 | 960 ± 350
2 | CN(C)CCCC1(c2ccccc2)OCc2cc(C#N)ccc21.Cl (centres unmarked) [Ex. 13, 1-{3-(dimethylamino)propyl}-1-phenyl-1,3-dihydro-5-isobenzofurancarbonitrile hydrochloride] | 1/6 | 327
3 | Cl.N#Cc1ccc2c(c1)COC2(CCCn1ccnc1)c1ccccc1 (centres unmarked) [Ex. 17, 1-{3-(imidazole-1-yl)propyl}-1-phenyl-1,3-dihydro-5-isobenzofurancarbonitrile hydrochloride] | 3/6 | 949 ± 330
4 | N#Cc1ccc2c(c1)COC2(CCCn1cccn1)c1ccc(Cl)cc1 (centres unmarked) [Ex. 65, 1-(4-chlorophenyl)-1-{3-(pyrazole-1-yl)propyl}-1,3-dihydro-5-isobenzofurancarbonitrile] | 5/9 | 801 ± 401
5 | N#Cc1ccc2c(c1)COC2(CCCn1cccn1)c1cccs1 (centres unmarked) [Ex. 49, 1-{3-(pyrazole-1-yl)propyl}-1-(2-thienyl)-1,3-dihydro-5-isobenzofurancarbonitrile] | 5/9 | 807 ± 301
6 | CN(C)CCCC1(c2cccs2)OCc2cc(C#N)ccc21.Cl (centres unmarked) [Ex. 41, 1-{3-(dimethylamino)propyl}-1-(2-thienyl)-1,3-dihydro-5-isobenzofurancarbonitrile hydrochloride] | 1/7 | 702
7 | COc1ccc(C2(CCCn3cccn3)OCc3cc(C#N)ccc32)cc1 (centres unmarked) [Ex. 8, 1-(4-methoxyphenyl)-1-{3-(pyrazole-1-yl)propyl}-1,3-dihydro-5-isobenzofurancarbonitrile] | 4/9 | 1230 ± 421
8 | N#Cc1ccc2c(c1)COC2(CCn1ccnc1)c1ccc(F)cc1 (centres unmarked) [Ex. 55, 1-(4-fluorophenyl)-1-{2-(imidazole-1-yl)ethyl}-1,3-dihydro-5-isobenzofurancarbonitrile] | 4/7 | 1450 ± 671
9 | Cl.N#Cc1ccc2c(c1)COC2(CCCn1cccn1)c1ccc(F)cc1 (centres unmarked) [Ex. 58, 1-(4-fluorophenyl)-1-{3-(pyrazole-1-yl)propyl}-1,3-dihydro-5-isobenzofurancarbonitrile hydrochloride] | 4/9 | 850 ± 362
10 | CN(C)CCCC1(c2ccc(N(C)C)cc2)OCc2cc(C#N)ccc21.Cl (centres unmarked) [Ex. 36, 1-(4-dimethylaminophenyl)-1-{3-(dimethylamino)propyl}-1,3-dihydro-5-isobenzofurancarbonitrile hydrochloride] | 2/6 | 554 ± 77
11 | CN(C)CCC1(c2cccs2)OCc2cc(C#N)ccc21 (centres unmarked) [Ex. 42, 1-{2-(dimethylamino)ethyl}-1-(2-thienyl)-1,3-dihydro-5-isobenzofurancarbonitrile] | 4/9 | 906 ± 275
12 | Cc1ccc(C2(CCCn3ccnc3)OCc3cc(C#N)ccc32)cc1.Cl (centres unmarked) [Ex. 27, 1-{3-(imidazole-1-yl)propyl}-1-(4-tolyl)-1,3-dihydro-5-isobenzofurancarbonitrile hydrochloride] | 3/7 | 864 ± 257
13 | N#Cc1ccc2c(c1)COC2(CCCn1ccnc1)c1ccc(F)cc1 (centres unmarked) [Ex. 53, 1-(4-fluorophenyl)-1-{3-(imidazole-1-yl)propyl}-1,3-dihydro-5-isobenzofurancarbonitrile] | 4/9 | 1054 ± 320
